The structures appear in SMILES notation.

For experiment [1], the system named is T315I ABL1 mutant KCL22 CML cells. Put plainly: MTS cell viability, T315I ABL1 mutant KCL22 CML cells. It counts as cell-based, human. As to the method:
(§1) MTS assays were performed for cell viability. Human cancer cells were seeded in 96-well plates (2500 cells/well for solid tumors, 5000 cells/well for blood tumors), incubated overnight at 37 C in 5% CO2, and exposed to 5IN-1NH1 or 5IN-1NH1s in a dose-dependent manner for 48 h. See FIGS. 1A-1B, 2A-2B, 3, 4A-4B, and 6A-6B. Dimethyl sulfoxide (DMSO) was used as the vehicle control. Viable cell numbers were determined by tetrazolium conversion to its formazan dye and absorbance was measured at 490 nm using an automated ELISA plate reader. Each experiment was performed in quadruplicate. IC50 values were determined using CalcuSyn software (BIOSOFT®, Cambridge GB).
Human DU145 prostate cancer, A2058 melanoma, SKOV3 ovarian cancer and T315I ABL1 mutant KCL22 CML cells were seeded in 96-well plates (2500 cells/well for solid tumors, 5000 cells/well for blood tumors), incubated overnight at 37° C. in 5% CO2, and exposed to 5IN-6NC1, 5IN-1NH1, 5IN-6NNC6, or 5IN-6NNC7 in a dose-dependent manner for 48 h. Dimethyl sulfoxide (DMSO) was used as the vehicle control. Viable cell numbers were determined by tetrazolium conversion to its formazan dye and absorbance was measured at 490 nm using an automated ELISA plate reader. Each experiment was performed in quadruplicate. IC50 values were determined using CalcuSyn software.

The subject of the next experiment is KCL22 CML cells. Description: MTS cell viability, KCL22 CML cells. It is filed as cell-based, human. Conditions: Homo sapiens, KCL-22, 48 h, read-out: IC50 for 50% inhibition of viability. The method, then: as §1
The test system of a further experiment is MOLM13 AML cells. Description: MTS cell viability, MOLM13 AML cells (FLT3-ITD). Conditions: Homo sapiens, MOLM-13, 48 h, read-out: IC50 for 50% inhibition of viability. It counts as cell-based, human. As to the method:
as §1
(§2) Compound (1289) inhibits viabilities of MV4-11 and MOLM13 AML cells that harbor an internal tandem duplication (ITD) mutation. MTS assays were performed for cell viability. Human MV4-11 and MOLM13 AML cells (5000/well) were seeded in 96-well plates, incubated overnight at 37° C. in 5% CO2, and exposed to compound (1289) in a dose-dependent manner for 48 h. Dimethyl sulfoxide (DMSO) was used as the vehicle control. Viable cell numbers were determined by tetrazolium conversion to its formazan dye and absorbance was measured at 490 nm using an automated ELISA plate reader. Each experiment was performed in quadruplicate. IC50 values were determined using CalcuSyn software.

For another experiment, the system named is MV4-11 AML cells. Put plainly: MTS cell viability, MV4-11 AML cells (FLT3-ITD). It counts as cell-based, human. Conditions: Homo sapiens, 48 h, read-out: IC50 for 50% inhibition of viability. The method, then: as §1, §2
Experiment [2] relates to MDA-MB-231 breast cancer cells. Put plainly: MTS cell viability, MDA-MB-231 breast cancer cells. It counts as cell-based, human. The note with it: Homo sapiens, 48 h, read-out: IC50 for 50% inhibition of viability. The method, then:
as §1

The next experiment relates to A2058 melanoma cells. Description: MTS cell viability, A2058 melanoma cells. It is filed as cell-based, human. Conditions: Homo sapiens, 48 h, read-out: IC50 for 50% inhibition of viability. The method, then: as §1
The subject of another experiment is A549 lung cancer cells. Put plainly: MTS cell viability, A549 lung cancer cells. Conditions: Homo sapiens, 48 h, read-out: IC50 for 50% inhibition of viability. It counts as cell-based, human. The method, then:
as §1

Experiment [3] concerns SKOV3 ovarian cancer cells. Put plainly: MTS cell viability, SKOV3 ovarian cancer cells. It counts as cell-based, human. Conditions: Homo sapiens, SK-OV-3, 48 h, read-out: IC50 for 50% inhibition of viability. As to the method: as §1
For experiment [4], the system named is DU145 prostate cancer cells. Put plainly: MTS cell viability, DU145 prostate cancer cells. It is filed as cell-based, human. Conditions: Homo sapiens, DU-145, 48 h, read-out: IC50 for 50% inhibition of viability. The method, then:
as §1

Another experiment concerns the target c-KIT (Homo sapiens, UniProt P10721). Put plainly: In vitro kinase assay, recombinant c-KIT. It counts as biochemical. The note with it: 33P-ATP, 120 min. As to the method:
(§3) Compound (1289) inhibits activities of FMS, PDGFR α, PDGFR β and c-KIT in vitro. The kinase assays were performed with recombinant FMS, PDGFR α, PDGFR β and c-KIT proteins. Briefly, proteins, freshly prepared substrates and ^33P-ATP (specific activity 0.01 μCi/μl final) were mixed in reaction buffer (20 mM HEPES pH 7.5, 10 mM MgCl2, 1 mM EGTA, 0.02% Brij35, 0.02 mg/ml BSA, 0.1 mM Na3VO4, 2 mM DTT) in the presence of DMSO as control or compound (1289). The mixtures were reacted for 120 min at room temperature. Samples were transferred onto P81 ion exchange paper and filters were extensively washed with 0.75% phosphoric acid. The radioactivities were monitored.
as §3, with “The” for “Compound (1289) inhibits activities of FMS, PDGFR α, PDGFR β and c-KIT in vitro. The”, “class III receptor tyrosine kinase family” for “FMS, PDGFR α, PDGFR β and c-KIT”, “5IN-1NH1s.” for “compound (1289).”, “monitored. IC50 values were determined using GraphPad Prism software.” for “monitored.”

For a further experiment, the target named is FLT3 (ITD) (Homo sapiens, UniProt P36888). Put plainly: In vitro kinase assay, recombinant FLT3 (ITD). The note with it: 33P-ATP, 120 min. It is filed as biochemical. The method, then: as §3, with “The” for “Compound (1289) inhibits activities of FMS, PDGFR α, PDGFR β and c-KIT in vitro. The”, “class III receptor tyrosine kinase family” for “FMS, PDGFR α, PDGFR β and c-KIT”, “5IN-1NH1s.” for “compound (1289).”, “monitored. IC50 values were determined using GraphPad Prism software.” for “monitored.”
as §3, with “Kinase” for “Compound (1289) inhibits activities of FMS, PDGFR α, PDGFR β and c-KIT in vitro. The kinase”, “FLT3, mutated FLT3-ITD” for “FMS, PDGFR α, PDGFR β”, “D835I mutant FLT3 kinases.” for “c-KIT proteins.”, “monitored. IC50 values were determined using GraphPad Prism software.” for “monitored.”

For a further experiment, the system named is MV4-11 AML SQ xenografts. Put plainly: MV4-11 AML SQ xenografts in vivo. The arrangement: species or system mouse. The note with it: NSG mice, 25 mg/kg orally twice daily for 18 days. The method, then:
Human MV4-11 AML cells (5×10^6) were resuspended in serum-free RPMI1640 medium and subcutaneously injected into the flank of 5-6 weeks old NOD/SCID/IL-2rg(ko) (NSG) female mouse. When palpable tumor sizes reached at approximately 100 mm^3, mice were randomly divided into two groups (vehicle=7, treatment=7). Then, compound (1289) was orally administered at 25 mg/kg with vehicle (10% DMSO+30% SOLUTOL®+60% Saline), twice daily for 18 days. Tumor volumes were calculated by the formula 1/2a×b^2, where a is the long diameter, and b is the short diameter. Tumor volumes correlate with tumor weights. The statistical significance of group differences was analyzed using a Student's t-test with the two-tailed distribution. P values less than 0.05 were considered statistically significant.

The subject of another experiment is STAT5. Description: Western blot, phosphorylation of STAT5 in AML cells. It is filed as cell-based, human. Conditions: FLT-ITD mutated AML cells (MV4-11, MOLM13), 4h. The method, then: (§4) Western blot analyses were performed with specific antibodies. Briefly, human MV4-11 and MOLM13 AML cells were treated with compound (1289) in a dose-dependent manner for 4h. Whole-cell lysates (40 ug) were resolved by SDS-PAGE. Primary phospho-specific antibodies to p-Stat5 and […] were diluted in TBS (pH 7.5) with 5% (w/v) BSA and 0.1% (v/v) Tween-20 over night at 4° C. Primary specific antibodies to Stat5 and […] were diluted in PBS (pH 7.5) with 5% (w/v) nonfat milk and 0.1% (v/v) Tween-20 overnight at 4° C. Horseradish peroxidase-conjugated secondary antibodies were incubated in PBS (pH 7.5) with 5% (w/v) nonfat milk and 0.1% (v/v) Tween-20 for 1 h at room temperature. Positive immuno-reactive proteins were detected using the ECL system.

The next experiment addresses PDGFR β (Homo sapiens, UniProt P09619). Put plainly: In vitro kinase assay, recombinant PDGFR β. It counts as biochemical. Conditions: 33P-ATP, 120 min. As to the method:
as §3
as §3, with “The” for “Compound (1289) inhibits activities of FMS, PDGFR α, PDGFR β and c-KIT in vitro. The”, “class III receptor tyrosine kinase family” for “FMS, PDGFR α, PDGFR β and c-KIT”, “5IN-1NH1s.” for “compound (1289).”, “monitored. IC50 values were determined using GraphPad Prism software.” for “monitored.”

The target of another experiment is FLT3 (D835Y) (Homo sapiens, UniProt P36888, D835Y). Description: In vitro kinase assay, recombinant FLT3 (D835Y). The note with it: 33P-ATP, 120 min. It counts as biochemical. As to the method:
as §3, with “The” for “Compound (1289) inhibits activities of FMS, PDGFR α, PDGFR β and c-KIT in vitro. The”, “class III receptor tyrosine kinase family” for “FMS, PDGFR α, PDGFR β and c-KIT”, “5IN-1NH1s.” for “compound (1289).”, “monitored. IC50 values were determined using GraphPad Prism software.” for “monitored.”
as §3, with “Kinase” for “Compound (1289) inhibits activities of FMS, PDGFR α, PDGFR β and c-KIT in vitro. The kinase”, “FLT3, mutated FLT3-ITD” for “FMS, PDGFR α, PDGFR β”, “D835I mutant FLT3 kinases.” for “c-KIT proteins.”, “monitored. IC50 values were determined using GraphPad Prism software.” for “monitored.”

Another experiment has as its target PDGFR α (Homo sapiens, UniProt P16234). Description: In vitro kinase assay, recombinant PDGFR α. The note with it: 33P-ATP, 120 min. It is filed as biochemical. The method, then: as §3
as §3, with “The” for “Compound (1289) inhibits activities of FMS, PDGFR α, PDGFR β and c-KIT in vitro. The”, “class III receptor tyrosine kinase family” for “FMS, PDGFR α, PDGFR β and c-KIT”, “5IN-1NH1s.” for “compound (1289).”, “monitored. IC50 values were determined using GraphPad Prism software.” for “monitored.”

A further experiment addresses FMS (Homo sapiens, UniProt P07333). Put plainly: In vitro kinase assay, recombinant FMS. Conditions: 33P-ATP, 120 min. It counts as biochemical. As to the method: as §3
as §3, with “The” for “Compound (1289) inhibits activities of FMS, PDGFR α, PDGFR β and c-KIT in vitro. The”, “class III receptor tyrosine kinase family” for “FMS, PDGFR α, PDGFR β and c-KIT”, “5IN-1NH1s.” for “compound (1289).”, “monitored. IC50 values were determined using GraphPad Prism software.” for “monitored.”

The target of another experiment is FLT3 (Homo sapiens, UniProt P36888). Description: In vitro kinase assay, recombinant FLT3. It counts as biochemical. Conditions: recombinant FLT3, 33P-ATP, 120 min. As to the method: as §3, with “The” for “Compound (1289) inhibits activities of FMS, PDGFR α, PDGFR β and c-KIT in vitro. The”, “class III receptor tyrosine kinase family” for “FMS, PDGFR α, PDGFR β and c-KIT”, “5IN-1NH1s.” for “compound (1289).”, “monitored. IC50 values were determined using GraphPad Prism software.” for “monitored.”
as §3, with “Kinase” for “Compound (1289) inhibits activities of FMS, PDGFR α, PDGFR β and c-KIT in vitro. The kinase”, “FLT3, mutated FLT3-ITD” for “FMS, PDGFR α, PDGFR β”, “D835I mutant FLT3 kinases.” for “c-KIT proteins.”, “monitored. IC50 values were determined using GraphPad Prism software.” for “monitored.”

Another experiment relates to Erk1/2. Description: Western blot, phosphorylation of Erk1/2 in AML cells. Conditions: FLT-ITD mutated AML cells (MV4-11, MOLM13), 4h. It is filed as cell-based, human. As to the method: as §4

Chain of c-KIT (P10721 26-976): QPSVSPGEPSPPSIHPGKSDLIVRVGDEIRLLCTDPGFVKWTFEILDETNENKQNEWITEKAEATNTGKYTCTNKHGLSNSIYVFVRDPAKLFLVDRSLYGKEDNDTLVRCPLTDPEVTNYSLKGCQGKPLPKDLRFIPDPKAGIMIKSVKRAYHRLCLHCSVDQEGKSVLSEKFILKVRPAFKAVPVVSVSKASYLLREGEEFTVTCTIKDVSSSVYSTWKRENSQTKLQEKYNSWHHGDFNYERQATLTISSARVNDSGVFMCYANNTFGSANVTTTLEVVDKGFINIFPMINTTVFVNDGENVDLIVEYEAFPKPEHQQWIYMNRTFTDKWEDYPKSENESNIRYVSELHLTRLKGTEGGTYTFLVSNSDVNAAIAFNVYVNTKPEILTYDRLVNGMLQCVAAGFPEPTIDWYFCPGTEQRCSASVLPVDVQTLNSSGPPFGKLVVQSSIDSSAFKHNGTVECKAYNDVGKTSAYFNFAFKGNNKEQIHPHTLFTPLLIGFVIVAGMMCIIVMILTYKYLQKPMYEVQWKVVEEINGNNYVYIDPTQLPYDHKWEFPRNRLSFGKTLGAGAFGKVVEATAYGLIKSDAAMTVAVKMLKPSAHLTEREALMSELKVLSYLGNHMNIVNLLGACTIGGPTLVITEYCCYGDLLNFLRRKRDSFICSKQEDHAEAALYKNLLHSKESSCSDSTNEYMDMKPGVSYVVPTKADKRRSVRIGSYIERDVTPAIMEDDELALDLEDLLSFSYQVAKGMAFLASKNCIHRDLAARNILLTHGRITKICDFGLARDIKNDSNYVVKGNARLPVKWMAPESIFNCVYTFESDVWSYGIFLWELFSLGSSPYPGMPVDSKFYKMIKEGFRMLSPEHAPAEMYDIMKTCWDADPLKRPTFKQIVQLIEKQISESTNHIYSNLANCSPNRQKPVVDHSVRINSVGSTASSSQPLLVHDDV
Chain of PDGFR α (P16234 24-1089, species assumed): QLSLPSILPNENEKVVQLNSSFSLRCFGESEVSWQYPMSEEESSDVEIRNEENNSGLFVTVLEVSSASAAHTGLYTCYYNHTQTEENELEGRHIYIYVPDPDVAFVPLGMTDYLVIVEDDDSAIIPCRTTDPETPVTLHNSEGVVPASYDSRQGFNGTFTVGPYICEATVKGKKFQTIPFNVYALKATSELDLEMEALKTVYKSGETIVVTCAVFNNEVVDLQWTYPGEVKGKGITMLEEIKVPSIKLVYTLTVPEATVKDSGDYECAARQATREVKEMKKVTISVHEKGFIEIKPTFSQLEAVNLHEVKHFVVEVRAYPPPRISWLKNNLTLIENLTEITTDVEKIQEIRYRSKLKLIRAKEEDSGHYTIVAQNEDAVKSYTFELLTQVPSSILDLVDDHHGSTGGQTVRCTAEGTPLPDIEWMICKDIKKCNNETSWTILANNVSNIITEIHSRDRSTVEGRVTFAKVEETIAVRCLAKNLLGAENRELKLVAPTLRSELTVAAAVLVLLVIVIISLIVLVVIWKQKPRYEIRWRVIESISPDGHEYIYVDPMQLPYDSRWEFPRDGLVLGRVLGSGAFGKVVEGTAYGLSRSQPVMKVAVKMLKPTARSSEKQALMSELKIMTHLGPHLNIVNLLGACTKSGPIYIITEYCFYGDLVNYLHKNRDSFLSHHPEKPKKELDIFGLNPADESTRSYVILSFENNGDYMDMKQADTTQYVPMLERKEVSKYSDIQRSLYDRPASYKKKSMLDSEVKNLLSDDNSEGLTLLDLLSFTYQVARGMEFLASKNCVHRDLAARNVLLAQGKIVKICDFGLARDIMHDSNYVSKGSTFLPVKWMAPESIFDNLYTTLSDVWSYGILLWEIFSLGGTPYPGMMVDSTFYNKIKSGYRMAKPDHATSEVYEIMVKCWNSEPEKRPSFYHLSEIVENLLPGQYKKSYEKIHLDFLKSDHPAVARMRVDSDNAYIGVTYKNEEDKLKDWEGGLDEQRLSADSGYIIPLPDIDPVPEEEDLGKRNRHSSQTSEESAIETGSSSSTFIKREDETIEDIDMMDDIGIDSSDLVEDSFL
Chain of PDGFR β (P09619 33-1106, species assumed): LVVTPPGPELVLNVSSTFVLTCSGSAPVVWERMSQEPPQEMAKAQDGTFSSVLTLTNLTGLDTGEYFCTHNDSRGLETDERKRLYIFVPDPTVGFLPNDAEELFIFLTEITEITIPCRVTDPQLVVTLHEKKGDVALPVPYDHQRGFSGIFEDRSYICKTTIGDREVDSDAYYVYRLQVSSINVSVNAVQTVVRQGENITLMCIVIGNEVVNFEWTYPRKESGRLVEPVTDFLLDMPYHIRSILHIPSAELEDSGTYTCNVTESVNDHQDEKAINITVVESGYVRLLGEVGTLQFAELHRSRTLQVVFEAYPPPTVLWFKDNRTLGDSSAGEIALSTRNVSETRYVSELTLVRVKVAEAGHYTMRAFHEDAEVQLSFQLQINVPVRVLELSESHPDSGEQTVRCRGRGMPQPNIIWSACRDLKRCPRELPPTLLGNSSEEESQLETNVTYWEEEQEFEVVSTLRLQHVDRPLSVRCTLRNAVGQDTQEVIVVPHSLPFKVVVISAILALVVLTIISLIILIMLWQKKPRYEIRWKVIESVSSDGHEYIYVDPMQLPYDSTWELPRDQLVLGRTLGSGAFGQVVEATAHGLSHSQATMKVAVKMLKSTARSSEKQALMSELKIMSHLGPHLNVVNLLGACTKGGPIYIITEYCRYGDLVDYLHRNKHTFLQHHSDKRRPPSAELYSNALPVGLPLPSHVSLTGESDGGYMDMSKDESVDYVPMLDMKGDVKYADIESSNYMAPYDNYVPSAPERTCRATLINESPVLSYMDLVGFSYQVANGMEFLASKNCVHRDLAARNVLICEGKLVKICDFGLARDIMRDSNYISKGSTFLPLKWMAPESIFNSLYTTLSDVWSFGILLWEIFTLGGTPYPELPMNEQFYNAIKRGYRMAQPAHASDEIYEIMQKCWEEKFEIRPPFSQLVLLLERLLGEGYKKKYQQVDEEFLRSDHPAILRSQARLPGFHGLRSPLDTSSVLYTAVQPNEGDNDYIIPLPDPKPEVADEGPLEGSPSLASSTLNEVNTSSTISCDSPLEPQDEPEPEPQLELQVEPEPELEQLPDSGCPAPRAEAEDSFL
Chain of FMS (P07333 20-972, species assumed): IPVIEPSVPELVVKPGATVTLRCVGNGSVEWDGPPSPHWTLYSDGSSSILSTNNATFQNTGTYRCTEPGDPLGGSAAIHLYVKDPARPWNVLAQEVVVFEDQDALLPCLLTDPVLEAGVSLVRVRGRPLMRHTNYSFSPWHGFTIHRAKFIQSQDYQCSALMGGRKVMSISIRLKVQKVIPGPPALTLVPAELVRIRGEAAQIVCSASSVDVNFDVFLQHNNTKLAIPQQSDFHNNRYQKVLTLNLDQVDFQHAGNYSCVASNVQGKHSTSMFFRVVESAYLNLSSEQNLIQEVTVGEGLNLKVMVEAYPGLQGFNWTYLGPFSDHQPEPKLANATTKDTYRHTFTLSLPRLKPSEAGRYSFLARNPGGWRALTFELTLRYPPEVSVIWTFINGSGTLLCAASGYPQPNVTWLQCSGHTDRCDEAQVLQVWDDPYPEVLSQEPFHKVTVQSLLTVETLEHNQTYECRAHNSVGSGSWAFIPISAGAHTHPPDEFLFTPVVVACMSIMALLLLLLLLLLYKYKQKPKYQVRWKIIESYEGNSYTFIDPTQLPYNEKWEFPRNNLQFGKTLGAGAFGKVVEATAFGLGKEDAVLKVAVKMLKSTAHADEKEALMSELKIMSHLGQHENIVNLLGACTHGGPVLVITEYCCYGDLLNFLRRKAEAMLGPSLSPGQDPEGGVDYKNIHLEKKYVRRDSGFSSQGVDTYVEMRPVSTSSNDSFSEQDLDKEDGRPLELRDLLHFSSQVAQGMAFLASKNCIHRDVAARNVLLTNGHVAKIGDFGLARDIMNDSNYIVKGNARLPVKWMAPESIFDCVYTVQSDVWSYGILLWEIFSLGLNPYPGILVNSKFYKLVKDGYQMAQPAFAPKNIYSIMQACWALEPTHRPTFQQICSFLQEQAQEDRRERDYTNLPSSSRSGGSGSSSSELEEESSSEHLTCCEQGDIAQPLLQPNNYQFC

As to `CNCCO/N=C1/C(=C2/C(=O)Nc3ccc(Br)cc32)Nc2ccccc21` [5IN-1NH1], the IC50 came out at 0.0523 µM in experiment [1] (Homo sapiens, KCL-22, T315I ABL1 mutant KCL22 CML cells, MTS, 48 h, read-out: IC50 for 50% inhibition of viability); 0.0574 µM in the experiment on KCL22 CML cells; 0.0113 µM with MOLM13 AML cells; 0.0078 µM in the experiment on MV4-11 AML cells; 0.0495 µM in experiment [2]; 0.0772 µM in the experiment with A2058 melanoma cells. The IC50 was 0.0665 µM in the experiment with A549 lung cancer cells, 0.174 µM in [3] and 0.0357 µM in experiment [4]. Further, the “potency against T315I KCL22 CML cells relative to compound (1289)” value in [1] (more potent than compound (1289)) is on record as “around 10 fold”.
Turning to `O=C1Nc2ccc(Br)cc2C1=C1Nc2ccccc2C1=NOCCN1CCNCC1` [Compound (1289)], the IC50 is 0.0477 µM on c-KIT; 0.00056 µM on FLT3 (ITD); 0.0012 µM on PDGFR β; 0.0023 µM in the experiment with MOLM13 AML cells; below 0.0005 µM on FLT3 (D835Y); 0.0018 µM in the experiment with MV4-11 AML cells. Besides, the IC50 at PDGFR α was 0.0136 µM; on FMS, 0.0076 µM; on FLT3, 0.00068 µM. Further, the “efficacy in vivo on MV4-11 AML SQ xenografts” value with MV4-11 AML SQ xenografts was “shows efficacy in vivo”. Also, the “phosphorylation of STAT5” value with STAT5 is on record as “blocked phosphorylation”. Also, the “phosphorylation of Erk1/2” value with Erk1/2 was “blocked phosphorylation”.

Source of the values: patent US11964941B2, “5-Bromo-indirubins” (City of Hope, priority 2014, dated 2024).
